Data: PubChem BioAssay AID248 (DTP/NCI, 2004)
Values joined by “and” are separate entries in the source; they are usually repeats but may differ in a detail not shown here. Identical values can stand only once. Toxic doses and inconclusive results are not listed. No stated cut-off is given here; in the data, active means T/C of 150% or more; inactive means T/C below 125%.

Test system: L1210 leukemia ip in BDF1 mice, survival T/C
Assay: NCI In Vivo Anticancer Drug Screen. Data for tumor model L1210 Leukemia (intraperitoneal) in B6D2F1 (BDF1) mice
Details: endpoint: mean survival time, higher = longer survival
How it was run: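 Tumor cells were implanted, animals were treated, and survival was followed. The result divides the treated measurement by the vehicle-control measurement.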

[1] = dose: 75.0 mg/kg/injection, schedule: Q04DX003 (ip), vehicle: Klucel (hydroxypropylcellulose) (HPC)
[2] = dose: 150.0 mg/kg/injection, schedule: Q04DX003 (ip), vehicle: Klucel (hydroxypropylcellulose) (HPC)
[3] = dose: 300.0 mg/kg/injection, schedule: Q04DX003 (ip), vehicle: Klucel (hydroxypropylcellulose) (HPC)
[4] = dose: 100.0 mg/kg/injection, schedule: Q01DX001 (ip), vehicle: saline
[5] = dose: 100.0 mg/kg/injection, schedule: Q04DX003 (ip), vehicle: saline
[6] = dose: 200.0 mg/kg/injection, schedule: Q01DX001 (ip), vehicle: saline
[7] = dose: 200.0 mg/kg/injection, schedule: Q04DX003 (ip), vehicle: saline
[8] = dose: 400.0 mg/kg/injection, schedule: Q01DX001 (ip), vehicle: saline
[9] = dose: 400.0 mg/kg/injection, schedule: Q04DX003 (ip), vehicle: saline
[10] = dose: 100.0 mg/kg/injection, schedule: Q04DX003 (ip), vehicle: saline with Tween-80
[11] = dose: 200.0 mg/kg/injection, schedule: Q04DX003 (ip), vehicle: saline with Tween-80
[12] = dose: 400.0 mg/kg/injection, schedule: Q04DX003 (ip), vehicle: saline with Tween-80
[13] = dose: 100.0 mg/kg/injection, schedule: Q01DX009 (ip), vehicle: saline with Tween-80
[14] = dose: 200.0 mg/kg/injection, schedule: Q01DX009 (ip), vehicle: saline with Tween-80
[15] = dose: 400.0 mg/kg/injection, schedule: Q01DX009 (ip), vehicle: saline with Tween-80
[16] = dose: 75.0 mg/kg/injection, schedule: Q01DX001 (ip), vehicle: saline
[17] = dose: 150.0 mg/kg/injection, schedule: Q01DX001 (ip), vehicle: saline
[18] = dose: 100.0 mg/kg/injection, schedule: Q01DX009 (ip), vehicle: Klucel (hydroxypropylcellulose) (HPC)
[19] = dose: 100.0 mg/kg/injection, schedule: Q04DX003 (ip), vehicle: Klucel (hydroxypropylcellulose) (HPC)
[20] = dose: 200.0 mg/kg/injection, schedule: Q01DX009 (ip), vehicle: Klucel (hydroxypropylcellulose) (HPC)
[21] = dose: 200.0 mg/kg/injection, schedule: Q04DX003 (ip), vehicle: Klucel (hydroxypropylcellulose) (HPC)
[22] = dose: 400.0 mg/kg/injection, schedule: Q01DX009 (ip), vehicle: Klucel (hydroxypropylcellulose) (HPC)
[23] = dose: 400.0 mg/kg/injection, schedule: Q04DX003 (ip), vehicle: Klucel (hydroxypropylcellulose) (HPC)
[24] = dose: 300.0 mg/kg/injection, schedule: Q01DX001 (ip), vehicle: saline

Measured: T/C

COc1ccc(/C=N/NC(=O)c2ccc(N=NN(C)C)cc2)c(OC)c1
inactive: [1] 104 % of control | [2] 97 % of control | [3] 99 % of control

NC(N)=NCCCC(N)C(=O)O (configuration not stated)
inactive: dose: 25.0 mg/kg/injection, schedule: Q04DX002 (ip), vehicle: saline 97 % of control | dose: 50.0 mg/kg/injection, schedule: Q04DX002 (ip), vehicle: saline 113 % of control | [4] 97 % of control | dose: 100.0 mg/kg/injection, schedule: Q01DX009 (ip), vehicle: saline 119 % of control | dose: 100.0 mg/kg/injection, schedule: Q04DX002 (ip), vehicle: saline 103 % of control and 97 % of control | [5] 102 % of control and 94 % of control | [6] 100 % of control | dose: 200.0 mg/kg/injection, schedule: Q01DX009 (ip), vehicle: saline 95 % of control | dose: 200.0 mg/kg/injection, schedule: Q04DX002 (ip), vehicle: saline 94 % of control | [7] 105 % of control and 90 % of control | [8] 103 % of control | dose: 400.0 mg/kg/injection, schedule: Q01DX009 (ip), vehicle: saline 97 % of control | dose: 400.0 mg/kg/injection, schedule: Q04DX002 (ip), vehicle: saline 94 % of control | [9] 109 % of control and 97 % of control

Cc1ccc(C)c(Cc2c(C=O)[nH]c(=S)[nH]c2=O)c1
inactive: [10] 97 % of control | [11] 101 % of control | [12] 110 % of control

COC1OC2COc3ccccc3OC2C(N=C(N)N[N+](=O)[O-])C1O (configuration not stated)
inactive: dose: 100.0 mg/kg/injection, schedule: Q01DX009 (ip), vehicle: gum acacia 97 % of control | dose: 200.0 mg/kg/injection, schedule: Q01DX009 (ip), vehicle: gum acacia 100 % of control | dose: 400.0 mg/kg/injection, schedule: Q01DX009 (ip), vehicle: gum acacia 95 % of control

CN(Cc1cnc2nc(N)nc(N)c2n1)c1ccc(C(=O)NC(CCC(=O)O)C(=O)O)cc1C(F)(F)F (configuration not stated)
active: dose: 5.0 mg/kg/injection, schedule: Q01DX009 (ip), vehicle: sodium bicarbonate 158 % of control | dose: 10.0 mg/kg/injection, schedule: Q01DX009 (ip), vehicle: sodium bicarbonate 168 % of control

COc1ccc(C(=O)NN2C(N)=NC(N)=NC2(C)C)cc1
inactive: [5] 94 % of control | [7] 97 % of control

Cc1ccc(S(=O)(=O)N(c2ccccc2-c2ccccc2)C(C)C(=O)O)cc1 (configuration not stated)
inactive: [4] 98 % of control | [6] 103 % of control | [8] 102 % of control

COC1OC2COC(c3ccccc3)OC2C(OS(=O)(=O)c2ccc(C)cc2)C1OS(=O)(=O)c1ccc(C)cc1 (configuration not stated)
inactive: [13] 93 % of control | [10] 88 % of control | [14] 90 % of control | [11] 91 % of control | [15] 95 % of control

Cc1c2ccncc2cc2c3ccccc3n(C)c12
inactive: dose: 37.5 mg/kg/injection, schedule: Q04DX003 (ip), vehicle: Klucel (hydroxypropylcellulose) (HPC) 98 % of control | [1] 103 % of control | [2] 102 % of control | [3] 115 % of control

Oc1ccccc1CNCc1ccccc1O
inactive: [16] 96 % of control | [17] 96 % of control

Cc1ccn(C(N)=O)n1
inactive: [18] 107 % of control | [19] 98 % of control | [20] 102 % of control | [21] 96 % of control | [22] 115 % of control | [23] 100 % of control

CC(C)(F)C(Br)C(=O)O (configuration not stated)
inactive: dose: 200.0 mg/kg/injection, schedule: Q04DX002 (ip), vehicle: saline with Tween-80 93 % of control

O=C(C[N+]12CN3CN(CN(C3)C1)C2)c1ccc(Br)cc1
inactive: dose: 100.0 mg/kg/injection, schedule: Q01DX005 (ip), vehicle: Klucel (hydroxypropylcellulose) (HPC) 103 % of control | [18] 111 % of control | dose: 200.0 mg/kg/injection, schedule: Q01DX005 (ip), vehicle: Klucel (hydroxypropylcellulose) (HPC) 109 % of control | [20] 107 % of control | dose: 400.0 mg/kg/injection, schedule: Q01DX005 (ip), vehicle: Klucel (hydroxypropylcellulose) (HPC) 111 % of control

CNc1nnnn1Cc1ccccc1
inactive: [5] 105 % of control | [7] 94 % of control | [9] 97 % of control

CCOC(=O)CCCN(C(=O)OCc1ccccc1)N(C)C(=O)OCc1ccccc1
inactive: dose: 25.0 mg/kg/injection, schedule: Q04DX003 (ip), vehicle: saline with Tween-80 104 % of control | dose: 50.0 mg/kg/injection, schedule: Q04DX003 (ip), vehicle: saline with Tween-80 111 % of control | [10] 106 % of control | [11] 104 % of control | [12] 101 % of control

Cc1ccccc1-n1c(C)nc2ccccc2c1=O
inactive: [16] 102 % of control | dose: 100.0 mg/kg/injection, schedule: Q01DX001 (ip), vehicle: other 94 % of control | [18] 97 % of control | [19] 101 % of control | [17] 106 % of control | dose: 200.0 mg/kg/injection, schedule: Q01DX001 (ip), vehicle: other 100 % of control | [20] 105 % of control | [21] 105 % of control | [24] 107 % of control | dose: 400.0 mg/kg/injection, schedule: Q01DX001 (ip), vehicle: other 96 % of control | [23] 111 % of control

Cc1nc(N)ccc1[N+](=O)[O-]
inactive: dose: 100.0 mg/kg/injection, schedule: Q04DX003 (ip), vehicle: saline sonified 98 % of control | dose: 200.0 mg/kg/injection, schedule: Q04DX003 (ip), vehicle: saline sonified 101 % of control | dose: 400.0 mg/kg/injection, schedule: Q04DX003 (ip), vehicle: saline sonified 104 % of control

CC(C)N(C(=O)COc1ccc(Cl)cc1Cl)c1ccccc1
inactive: [13] 102 % of control | [10] 96 % of control | [14] 106 % of control | [11] 96 % of control | [15] 124 % of control | [12] 91 % of control

CN(N=O)C(=O)NCc1ccc(Cl)cc1
inactive: dose: 9.0 mg/kg/injection, schedule: Q01DX Z (ip), vehicle: carboxymethylcellulose (CMC) 108 % of control | dose: 18.0 mg/kg/injection, schedule: Q01DX Z (ip), vehicle: carboxymethylcellulose (CMC) 91 % of control | dose: 37.0 mg/kg/injection, schedule: Q01DX Z (ip), vehicle: carboxymethylcellulose (CMC) 101 % of control | dose: 75.0 mg/kg/injection, schedule: Q01DX Z (ip), vehicle: carboxymethylcellulose (CMC) 111 % of control | dose: 100.0 mg/kg/injection, schedule: Q01DX Z (ip), vehicle: carboxymethylcellulose (CMC) 109 % of control | dose: 150.0 mg/kg/injection, schedule: Q01DX Z (ip), vehicle: carboxymethylcellulose (CMC) 118 % of control | dose: 200.0 mg/kg/injection, schedule: Q01DX Z (ip), vehicle: carboxymethylcellulose (CMC) 119 % of control

O=C(Oc1ccccc1)C(O)CO (configuration not stated)
inactive: [13] 92 % of control | [14] 96 % of control | [15] 93 % of control

O=C(O)c1cc2ccccc2s1
inactive: dose: 50.0 mg/kg/injection, schedule: Q01DX009 (ip), vehicle: Klucel (hydroxypropylcellulose) (HPC) 98 % of control | [18] 101 % of control | [19] 102 % of control | [20] 95 % of control | [21] 94 % of control

CC1=NOC(=O)C12CC2
inactive: [16] 100 % of control | [17] 100 % of control | [24] 103 % of control

COc1ccccc1N(N=O)C(=O)CC(C)=O
inactive: [4] 101 % of control | [6] 101 % of control | [8] 101 % of control

Clc1ccc(Cl)c(N=Cc2ccc3c(c2)OCO3)c1
inactive: [5] 92 % of control | [7] 95 % of control | [9] 92 % of control

COc1cc(C=O)ccc1OC(=O)Nc1cccc(Cl)c1C
inactive: [18] 97 % of control | [20] 97 % of control | [22] 103 % of control

O=C(O)CNC(=O)Nc1ccccc1
inactive: [13] 97 % of control | [10] 100 % of control | [14] 95 % of control | [11] 96 % of control | [15] 91 % of control | [12] 97 % of control

OCCNc1ccc(I)cc1
inactive: [13] 90 % of control | [14] 92 % of control | [15] 87 % of control
